Reference: patent publication US20230085307A1, “PYRIDAZINONE COMPOUND AND HERBICIDE” (NISSAN CHEMICAL CORPORATION, priority 2019, published 2023)

system: rice flat sedge; assay: Test Example 3: herbicidal effect by foliage application, Wagner pot (Table 18, symbol E); type: in vivo, rice flat sedge (Cyperus iria); details: 100 g/ha
Method in brief: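 Plants were sown in alluvial soil held under 0.1–0.5 cm standing water and grown 14 days in a greenhouse at 25–30 °C. An emulsifiable formulation, water-diluted to the set dose, was then sprayed onto the foliage, and effects were scored three weeks later using previously defined criteria.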

Row | Structure (SMILES) | herbicidal effect on E (rice flat sedge), rating 0-5
1 | C#CC(C)Oc1ccc(-c2sc3ccccc3c2-c2c(OCOCCOC)c(C)nn(C)c2=O)cc1 (racemic) [1-218] | 4 (Herbicidal rate of 70% or more and less than 90%)

same assay, conditions: 246 g/ha

Row | Structure (SMILES) | herbicidal effect on E (rice flat sedge), rating 0-5
2 | Cc1nn(C)c(=O)c(-c2c(-c3ccc(OCCC4OCCO4)cc3)sc3ccccc23)c1O [1-223] | 4 (Herbicidal rate of 70% or more and less than 90%)

same assay, conditions: 320 g/ha

Row | Structure (SMILES) | herbicidal effect on E (rice flat sedge), rating 0-5
3 | C#CC(C)Oc1ccc(-c2sc3ccccc3c2-c2c(O)c(C)nn(C)c2=O)cc1 (racemic) [1-217] | 3 (Herbicidal rate of 40% or more and less than 70%)
4 | Cc1nn(C)c(=O)c(-c2c(-c3ccc(OCCBr)cc3)sc3ccccc23)c1O [1-204] | 5 (Herbicidal rate of 90% or more (almost completely withered))
5 | C=C(C)COc1ccc(-c2sc3ccccc3c2-c2c(O)c(C)nn(C)c2=O)cc1 [1-208] | 4 (Herbicidal rate of 70% or more and less than 90%)
6 | COc1ccc(-c2sc3ccc(F)cc3c2-c2c(O)c(C)nn(C)c2=O)cc1 [2-026] | 5 (Herbicidal rate of 90% or more (almost completely withered))
7 | CCCOc1ccc(-c2sc3ccc(F)cc3c2-c2c(O)c(C)nn(C)c2=O)cc1 [2-032] | 5 (Herbicidal rate of 90% or more (almost completely withered))
8 | CCCCOc1ccc(-c2sc3ccc(F)cc3c2-c2c(O)c(C)nn(C)c2=O)cc1 [2-036] | 5 (Herbicidal rate of 90% or more (almost completely withered))
9 | C=CCOc1ccc(-c2sc3ccc(F)cc3c2-c2c(O)c(C)nn(C)c2=O)cc1 [2-051] | 5 (Herbicidal rate of 90% or more (almost completely withered))
10 | C#CCOc1ccc(-c2sc3ccc(F)cc3c2-c2c(O)c(C)nn(C)c2=O)cc1 [2-053] | 4 (Herbicidal rate of 70% or more and less than 90%)
11 | CSc1ccc(-c2sc3ccc(F)cc3c2-c2c(O)c(C)nn(C)c2=O)cc1 [2-076] | 5 (Herbicidal rate of 90% or more (almost completely withered))
12 | CCCC(=O)Oc1c(C)nn(C)c(=O)c1-c1c(-c2ccc(SC)cc2)sc2ccc(F)cc12 [2-077] | 5 (Herbicidal rate of 90% or more (almost completely withered))
13 | CON=C(C)c1ccc(-c2sc3ccc(F)cc3c2-c2c(O)c(C)nn(C)c2=O)cc1 [2-079] | 5 (Herbicidal rate of 90% or more (almost completely withered))
14 | CCCC(=O)Oc1c(C)nn(C)c(=O)c1-c1c(-c2ccc(C(C)=NOC)cc2)sc2ccc(F)cc12 [2-080] | 5 (Herbicidal rate of 90% or more (almost completely withered))
15 | CCOc1cc(F)ccc1-c1sc2ccc(F)cc2c1-c1c(O)c(C)nn(C)c1=O [2-084] | 5 (Herbicidal rate of 90% or more (almost completely withered))
16 | Cc1nn(C)c(=O)c(-c2c(-c3ccc4c(c3)OCCO4)sc3ccc(F)cc23)c1O [2-092] | 5 (Herbicidal rate of 90% or more (almost completely withered))

same assay, conditions: amount of applied herbicide 320 g/ha

Row | Structure (SMILES) | herbicidal effect on E: rice flat sedge
17 | Cc1nn(C)c(=O)c(-c2c(-c3ccc(C(F)(F)F)cc3)sc3ccc(Cl)cc23)c1O [2-111] | 3 (Herbicidal rate of 40% or more and less than 70%)
18 | CCCC(=O)Oc1c(C)nn(C)c(=O)c1-c1c(-c2ccccc2OC)sc2ccc(C)cc12 [2-139] | 4 (Herbicidal rate of 70% or more and less than 90%)
19 | C=Cc1ccc2sc(-c3ccccc3OC)c(-c3c(O)c(C)nn(C)c3=O)c2c1 [2-185] | 2 (Herbicidal rate of 20% or more and less than 40%)
20 | Cc1nn(C)c(=O)c(-c2c(-c3ccccc3)sc3ccc(F)cc23)c1O [2-197] | 5 (Herbicidal rate of 90% or more (almost completely withered))
21 | CCCC(=O)Oc1c(C)nn(C)c(=O)c1-c1c(-c2ccccc2)sc2ccc(F)cc12 [2-198] | 5 (Herbicidal rate of 90% or more (almost completely withered))
22 | Cc1nn(C)c(=O)c(-c2c(-c3ccccc3F)sc3ccc(F)cc23)c1O [2-199] | 5 (Herbicidal rate of 90% or more (almost completely withered))
23 | Cc1nn(C)c(=O)c(-c2c(-c3ccc(Br)cc3)sc3ccc(F)cc23)c1O [2-205] | 5 (Herbicidal rate of 90% or more (almost completely withered))
24 | CCCC(=O)Oc1c(C)nn(C)c(=O)c1-c1c(-c2ccc(Br)cc2)sc2ccc(F)cc12 [2-206] | 5 (Herbicidal rate of 90% or more (almost completely withered))
25 | CCc1ccc(-c2sc3ccc(F)cc3c2-c2c(O)c(C)nn(C)c2=O)cc1 [2-207] | 5 (Herbicidal rate of 90% or more (almost completely withered))
26 | Cc1nn(C)c(=O)c(-c2c(-c3cccc(OCC(C)C)c3)sc3ccc(F)cc23)c1O [2-221] | 5 (Herbicidal rate of 90% or more (almost completely withered))
27 | Cc1nn(C)c(=O)c(-c2c(-c3cccc(OC(C)(C)C)c3)sc3ccc(F)cc23)c1O [2-223] | 4 (Herbicidal rate of 70% or more and less than 90%)
28 | CCCC(=O)Oc1c(C)nn(C)c(=O)c1-c1c(-c2ccc(C(F)F)cc2)sc2ccc(F)cc12 [2-228] | 5 (Herbicidal rate of 90% or more (almost completely withered))
29 | CCSc1ccc(-c2sc3ccc(F)cc3c2-c2c(O)c(C)nn(C)c2=O)cc1 [2-244] | 5 (Herbicidal rate of 90% or more (almost completely withered))
30 | CCCC(=O)Oc1c(C)nn(C)c(=O)c1-c1c(-c2ccc(SCC)cc2)sc2ccc(F)cc12 [2-245] | 4 (Herbicidal rate of 70% or more and less than 90%)
31 | Cc1nn(C)c(=O)c(-c2c(-c3ccc(SC4CC4)cc3)sc3ccc(F)cc23)c1O [2-254] | 5 (Herbicidal rate of 90% or more (almost completely withered))
32 | Cc1nn(C)c(=O)c(-c2c(-c3ccc([S+]([O-])C(C)C)cc3)sc3ccc(F)cc23)c1O (stereo not drawn) [2-257] | 5 (Herbicidal rate of 90% or more (almost completely withered))
33 | Cc1nn(C)c(=O)c(-c2c(-c3ccc(S(C)(=O)=O)cc3)sc3ccc(F)cc23)c1O [2-258] | 5 (Herbicidal rate of 90% or more (almost completely withered))
34 | Cc1nn(C)c(=O)c(-c2c(-c3ccc(OC(F)F)cc3)sc3ccc(F)cc23)c1OC(=O)c1ccc(Cl)cc1 [2-286] | 4 (Herbicidal rate of 70% or more and less than 90%)
35 | Cc1nn(C)c(=O)c(-c2c(-c3ccc(OC(F)F)cc3)sc3ccc(F)cc23)c1OC(=O)c1ccco1 [2-287] | 5 (Herbicidal rate of 90% or more (almost completely withered))
36 | Cc1nn(C)c(=O)c(-c2c(-c3ccc(OC(F)F)cc3)sc3ccc(F)cc23)c1OC(=O)C1CCCO1 (stereo not drawn) [2-289] | 5 (Herbicidal rate of 90% or more (almost completely withered))
37 | CCOC(=O)Oc1c(C)nn(C)c(=O)c1-c1c(-c2ccc(OC(F)F)cc2)sc2ccc(F)cc12 [2-292] | 4 (Herbicidal rate of 70% or more and less than 90%)
38 | Cc1nn(C)c(=O)c(-c2c(-c3ccc(OC(F)F)cc3)sc3ccc(F)cc23)c1OC(=O)OCCCl [2-293] | 5 (Herbicidal rate of 90% or more (almost completely withered))
39 | Cc1nn(C)c(=O)c(-c2c(-c3ccc(OC(F)F)cc3)sc3ccc(F)cc23)c1OC(=S)Sc1ccccc1 [2-298] | 5 (Herbicidal rate of 90% or more (almost completely withered))
40 | Cc1nn(C)c(=O)c(-c2c(-c3ccc(OC(F)F)cc3)sc3ccc(F)cc23)c1OCC(=O)c1ccccc1 [2-305] | 3 (Herbicidal rate of 40% or more and less than 70%)
41 | Cc1nn(C)c(=O)c(-c2c(-c3ccc(O)cc3)sc3ccc(F)cc23)c1O [2-337] | 3 (Herbicidal rate of 40% or more and less than 70%)
42 | CC(=O)c1ccc(-c2sc3ccc(F)cc3c2-c2c(O)c(C)nn(C)c2=O)cc1 [2-339] | 4 (Herbicidal rate of 70% or more and less than 90%)

system: false cleavers; assay: Test Example 4: herbicidal effect by soil treatment (Table 19, symbol Q); type: in vivo, false cleavers (Galium spurium); details: 320 g/ha
Method in brief: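 Soil-surface application: an emulsion agent diluted with water to the predetermined dose is sprayed uniformly over seeds lying under roughly 1.5 cm of sterilized diluvial soil. Boxes stay in a greenhouse at 25° C. to 30° C. Three weeks later, each species is graded on previously defined criteria.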

Row | Structure (SMILES) | herbicidal effect rating, Q: false cleavers
43 | CCCOc1ccc(-c2sc3ccc(F)cc3c2-c2c(O)c(C)nn(C)c2=O)cc1 [2-032] | 0 (Herbicidal rate of 5% or less (almost no effect))

same assay, conditions: AAH 187 g/ha

Row | Structure (SMILES) | Q: false cleavers, herbicidal effect rating
44 | C#CC(C)Oc1ccc(-c2sc3ccccc3c2-c2c(OCOCCOC)c(C)nn(C)c2=O)cc1 (racemic) [1-218] | 0 (Herbicidal rate of 5% or less (almost no effect))

same assay, conditions: AAH 246 g/ha

Row | Structure (SMILES) | Q: false cleavers, herbicidal effect rating
45 | Cc1nn(C)c(=O)c(-c2c(-c3ccc(OCCC4OCCO4)cc3)sc3ccccc23)c1O [1-223] | 0 (Herbicidal rate of 5% or less (almost no effect))

same assay, conditions: AAH 320 g/ha

Row | Structure (SMILES) | Q: false cleavers, herbicidal effect rating
46 | C#CC(C)Oc1ccc(-c2sc3ccccc3c2-c2c(O)c(C)nn(C)c2=O)cc1 (racemic) [1-217] | 3 (Herbicidal rate of 40% or more and less than 70%)
47 | Cc1nn(C)c(=O)c(-c2c(-c3ccc(OCCBr)cc3)sc3ccccc23)c1O [1-204] | 0 (Herbicidal rate of 5% or less (almost no effect))
48 | C=C(C)COc1ccc(-c2sc3ccccc3c2-c2c(O)c(C)nn(C)c2=O)cc1 [1-208] | 0 (Herbicidal rate of 5% or less (almost no effect))

same assay, conditions: amount of applied herbicide 320 g/ha

Row | Structure (SMILES) | Q: false cleavers, herbicidal effect rating | herbicidal effect on Q: false cleavers
49 | Cc1nn(C)c(=O)c(-c2c(-c3ccc(Br)cc3)sc3ccc(F)cc23)c1O [2-205] | 1 (Herbicidal rate of 5% or more and less than 20%) | 
50 | Cc1nn(C)c(=O)c(-c2c(-c3ccc(OC(F)F)cc3)sc3ccc(F)cc23)c1OC(=S)Sc1ccccc1 [2-298] |  | 0 (Herbicidal rate of 5% or less (almost no effect))
51 | Cc1nn(C)c(=O)c(-c2c(-c3ccc(O)cc3)sc3ccc(F)cc23)c1O [2-337] |  | 0 (Herbicidal rate of 5% or less (almost no effect))

system: false cleavers; assay: Test Example 5: herbicidal effect by foliage application, plastic box (Table 20, symbol Q); type: in vivo, false cleavers (Galium spurium); details: foliage application, 320 g/ha, 3 weeks after application
Method in brief: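 Sow seeds spot-wise in sterilized diluvial soil; cover with ~1.5 cm soil. Grow 14 days in greenhouse, 25° C. to 30° C. Spray foliage with emulsion diluted to predetermined amount. Rate effect after 3 weeks.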

Row | Structure (SMILES) | effect on false cleavers (Q)
52 | COc1ccc(-c2sc3ccc(F)cc3c2-c2c(O)c(C)nn(C)c2=O)cc1 [2-026] | 4 (Herbicidal rate of 70% or more and less than 90%)
53 | CCCCOc1ccc(-c2sc3ccc(F)cc3c2-c2c(O)c(C)nn(C)c2=O)cc1 [2-036] | 4 (Herbicidal rate of 70% or more and less than 90%)

same assay, conditions: foliage application, 320 g/ha, evaluated three weeks after application

Row | Structure (SMILES) | herbicidal effect on Q: false cleavers
54 | CON=C(C)c1ccc(-c2sc3ccc(F)cc3c2-c2c(O)c(C)nn(C)c2=O)cc1 [2-079] | 5 (Herbicidal rate of 90% or more (almost completely withered))
55 | CCOc1cc(F)ccc1-c1sc2ccc(F)cc2c1-c1c(O)c(C)nn(C)c1=O [2-084] | 5 (Herbicidal rate of 90% or more (almost completely withered))
56 | Cc1nn(C)c(=O)c(-c2c(-c3ccc4c(c3)OCCO4)sc3ccc(F)cc23)c1O [2-092] | 4 (Herbicidal rate of 70% or more and less than 90%)

same assay, conditions: foliage application, AAH 320 g/ha, evaluated three weeks after application

Row | Structure (SMILES) | Q: false cleavers, herbicidal effect (criteria 0-5)
57 | Cc1nn(C)c(=O)c(-c2c(-c3ccc(OC(F)F)cc3)sc3ccc(F)cc23)c1OC(=O)OCCCl [2-293] | 5 (Herbicidal rate of 90% or more (almost completely withered))
